SMILES strings stand for the structures. Some results are limits rather than exact numbers.

The experiment deals with T1, RORγ (Homo sapiens, UniProt P51449).
T1 construct: expressed in transfected cells; host or cells: 293FT cells (Invitrogen), expression vector pFN26A (Promega)
T1 sequence (P51449 269-508 limits assumed): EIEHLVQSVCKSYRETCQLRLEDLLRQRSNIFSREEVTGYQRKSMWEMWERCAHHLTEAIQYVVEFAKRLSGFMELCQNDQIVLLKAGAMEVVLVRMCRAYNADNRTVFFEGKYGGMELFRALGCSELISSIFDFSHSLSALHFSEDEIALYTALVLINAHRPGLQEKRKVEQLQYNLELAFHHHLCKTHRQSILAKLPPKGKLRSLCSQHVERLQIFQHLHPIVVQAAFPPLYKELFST
As to the kind of experiment: RORγ GAL4 reporter gene assay. It counts as cell-based. The settings on record: inhibition of RORγ activity, GAL4-RORγ-LBD luciferase reporter in 293FT cells, overnight incubation; read-out: mean pIC50 (converted). As for the experimental part: Example inhibitors 1-166 were tested for their ability to inhibit RORγ activity in a RORγ GAL4 reporter gene assay. The assay procedure and results are described below.
RORγ GAL4 Reporter Gene Assay Description
A GAL4 one-hybrid reporter system employing luciferase readout was established to determine inhibition of RORγ in 293FT cells. The RORγ ligand-binding domain (LBD) was fused to the yeast GAL4 DNA binding domain (DBD) and placed under the control of the human cytomegalovirus (CMV) immediate early promoter, using expression vector pFN26A (Promega) and standard recombinant DNA cloning methods. To serve as a control in the assay, a similar vector was generated in which the GAL4-DBD was fused to Herpes simplex virus protein 16 (VP16), a constitutive transcriptional activator.
To monitor the inhibitory effect of compounds on RORγ, a transcriptional reporter construct was used. The pGL4.35 vector (Promega) contains nine copies of the GAL4 Upstream Activator Sequence (UAS). This sequence drives the transcription of the luciferase reporter gene luc2P in response to binding of a fusion protein containing the GAL4 DNA binding domain, as for example expressed by the GAL4-RORγ-LBD and GAL4-VP16 expression vectors described above. To allow a GAL4 fusion protein to drive the expression of the luciferase reporter, the pGL4.35 expression vector and the appropriate GAL4 fusion protein expression vector were bulk transfected in the 293FT cells using standard transfection techniques.
The day after transfection, cells were plated into 96 well plates, test compound was added and the plates were incubated overnight. Subsequently, the firefly luciferase activity was quantified using luciferase detection reagent and luminescence readout.
Detailed Assay Description
293FT cells (Invitrogen) were transfected with a GAL4 fusion protein expression vector (as described above) and the transcriptional reporter construct (pGL4.35, Promega). 60 μL of TransIT-293 transfection reagent (Mirus Bio) was added drop wise to 1500 μl Opti-MEM I Reduced Serum Medium (Invitrogen) and incubated at room temperature (RT) for 5 to 20 minutes. 1500 μL of this reagent mixture was added to 5 μg of GAL4 fusion protein expression vector and 5 μg of the transcriptional reporter construct, and incubated at RT for 20 minutes.
To harvest 293FT cells from a T75 flask, first the culture medium was taken off the cells. Subsequently, the cells were washed with Phosphate Buffered Saline (PBS) (Lonza), after which the PBS was removed. To dissociate the cells, 1 ml of TrypLE Express (Invitrogen) was added to the flask, followed by incubation at RT until the cells visually started to detach. Cells were collected in 5 mL of assay medium (DMEM culture medium (Lonza), 10% dialyzed FBS (Invitrogen) and Pen/Strep (Lonza)) to achieve a single cell suspension. 10×10^6 cells were spun down and re-suspended in 10 mL of assay medium. Subsequently, the cell suspension was added to the transfection mix tube, and then transferred as a whole to a T75 flask (Greiner), followed by overnight (16-24 hours) incubation at 37° C. and 5% CO2.
For compound screening, the cells were harvested (as described above) and counted. 13×10^6 cells were spun down, the supernatant was aspirated and the cells were re-suspended in 17.3 mL of assay medium obtaining a cell suspension of 0.75×10^6 cells/mL. 80 μL of cell suspension (60,000 cells) was plated per well into a white, flat bottom, tissue culture treated, 96 well screening plates (Greiner).
Test compounds were diluted, starting from a 10 mM dimethylsulfoxide (DMSO) stock solution, to serial dilutions in DMSO at 500× the final test concentration. Subsequently, these solutions were diluted to 5× the final test concentration in two 10-fold-dilution steps in assay medium. The final DMSO concentration of the 5× test compound solution was 1%. […]
Take `CCN(C(=O)c1ccc(NC(=O)Cc2ccc(S(=O)(=O)CC3CC3)cc2)cc1)c1cccc(C)c1` [Example 31, 4-[2-(4-cyclopropylmethanesulfonylphenyl)acetamido]-N-ethyl-N-(3-methylphenyl)benzamide]: the IC50 is at most 0.01 µM.

For `CN(C(=O)c1ccc(NC(=O)Cc2ccc(S(=O)(=O)CC3CC3)cc2)cc1)c1nccs1` [Example 85, 4-[2-(4-cyclopropylmethanesulfonylphenyl)acetamido]-N-methyl-N-(1,3-thiazol-2-yl)benzamide], the IC50 was at most 1 µM.

For `Cc1ccc(N(C(=O)c2ccc(NC(=O)Cc3ccc(S(=O)(=O)CC4CC4)cc3)cc2)C(C)(C)CO)cc1` [Example 153, 4-[2-(4-cyclopropylmethanesulfonylphenyl)acetamido]-N-(1-hydroxy-2-methylpropan-2-yl)-N-(4-methylphenyl)benzamide], the IC50 was at most 0.1 µM.

In the case of `CCOC(=O)c1csc(C2CCCN2C(=O)c2ccc(NC(=O)Cc3ccc(S(=O)(=O)CC4CC4)cc3)cc2)n1` (stereo not shown) [Example 38, ethyl 2-(1-{4-[2-(4-cyclopropylmethanesulfonylphenyl)acetamido]benzoyl}pyrrolidin-2-yl)-1,3-thiazole-4-carboxylate], the IC50 is at most 1 µM.

For `CCN(C(=O)c1ccc(NC(=O)Cc2ccc(S(=O)(=O)CC3CC3)cc2)cc1)c1nccs1` [Example 84, 4-[2-(4-cyclopropylmethanesulfonylphenyl)acetamido]-N-ethyl-N-(1,3-thiazol-2-yl)benzamide], the IC50 was at most 0.1 µM.

`O=C(Cc1ccc(S(=O)(=O)CC2CC2)nc1)Nc1ccc(C(=O)N(CC(F)(F)F)c2ccccc2)cc1` [Example 155, 4-[2-(6-cyclopropylmethanesulfonylpyridin-3-yl)acetamido]-N-phenyl-N-(2,2,2-trifluoroethyl)benzamide]: the IC50 is at most 0.01 µM.

Turning to `CCN(C(=O)c1ccc(NC(=O)Cc2ccc(S(=O)(=O)CC3CC3)cc2)cc1)c1cc(C)no1` [Example 94, 4-[2-(4-cyclopropylmethanesulfonylphenyl)acetamido]-N-ethyl-N-(3-methyl-1,2-oxazol-5-yl)benzamide], the IC50 was at most 0.01 µM.

In the case of `CCN(C(=O)c1ccc(NC(=O)Cc2ccc(S(=O)(=O)CC3CC3)nc2)cc1F)c1ccccc1` [Example 156, 4-[2-(6-cyclopropylmethanesulfonylpyridin-3-yl)acetamido]-N-ethyl-2-fluoro-N-phenylbenzamide], the IC50 was at most 0.1 µM.

As to `CCN(C(=O)c1ccc(NC(=O)Cc2ccc(S(=O)(=O)CC3CC3)cc2)cc1)c1ccccc1` [Example 16, 4-[2-(4-cyclopropylmethanesulfonylphenyl)acetamido]-N-ethyl-N-phenylbenzamide], the IC50 was at most 0.01 µM.

Consider `CCCN(C(=O)c1ccc(NC(=O)Cc2ccc(S(=O)(=O)CC3CC3)cc2)cc1)c1ccccc1` [Example 19, 4-[2-(4-cyclopropylmethanesulfonylphenyl)acetamido]-N-phenyl-N-propylbenzamide], for which the IC50 is at most 0.01 µM.

For the compound `CCN(C(=O)c1ccc(NC(=O)Cc2ccc(S(=O)(=O)CC3CC3)cc2)cc1C)c1cccc(C)c1C` [Example 164, 4-[2-(4-cyclopropylmethanesulfonylphenyl)acetamido]-N-(2,3-dimethylphenyl)-N-ethyl-2-methylbenzamide], the IC50 was at most 0.01 µM.

In the case of `Cc1ccccc1N(C)C(=O)c1ccc(NC(=O)Cc2ccc(S(=O)(=O)CC3CC3)cc2)cc1F` [Example 116, 4-[2-(4-cyclopropylmethanesulfonylphenyl)acetamido]-2-fluoro-N-methyl-N-(2-methylphenyl)benzamide], the IC50 was at most 0.1 µM.

As to `O=C(Cc1ccc(S(=O)(=O)CC2CC2)cc1)Nc1ccc(C(=O)N(c2cccnc2)C2CC2)cc1` [Example 143, N-cyclopropyl-4-[2-(4-cyclopropylmethanesulfonylphenyl)acetamido]-N-(pyridin-3-yl)benzamide], the IC50 was at most 0.1 µM.

As to `CN(C(=O)c1ccc(NC(=O)Cc2ccc(S(=O)(=O)CC3CC3)cc2)cc1Cl)c1ccccc1F` [Example 127, 2-chloro-4-[2-(4-cyclopropylmethanesulfonylphenyl)acetamido]-N-(2-fluorophenyl)-N-methylbenzamide], the IC50 is at most 0.01 µM.

As for `C=CCN(CC=C)C(=O)c1ccc(NC(=O)Cc2ccc(S(=O)(=O)CC3CC3)cc2)cc1` [Example 61, 4-[2-(4-cyclopropylmethanesulfonylphenyl)acetamido]-N,N-bis(prop-2-en-1-yl)benzamide], the IC50 was at most 0.1 µM.

For `Cc1ccc(N(C(=O)c2ccc(NC(=O)Cc3ccc(S(=O)(=O)NC4CC4)cc3)cc2)C(C)(C)C2CCCO2)cc1` (stereo not shown) [Example 132, 4-{2-[4-(cyclopropylsulfamoyl)phenyl]acetamido}-N-(4-methylphenyl)-N-[2-(oxolan-2-yl)propan-2-yl]benzamide], the IC50 is at most 0.1 µM.

For the compound `CCCNC(=O)c1ccc(NC(=O)Cc2ccc(S(=O)(=O)CC3CC3)cc2)cc1` [Example 1, 4-[2-(4-cyclopropylmethanesulfonylphenyl)acetamido]-N-propylbenzamide], the IC50 was at most 1 µM.

Take `O=C(Cc1ccc(S(=O)(=O)CC2CC2)cc1)Nc1ccc(C(=O)N(c2ccccn2)C2CCC2)cc1` [Example 139, N-cyclobutyl-4-[2-(4-cyclopropylmethanesulfonylphenyl)acetamido]-N-(pyridin-2-yl)benzamide]: the IC50 is at most 0.01 µM.

`O=C(Cc1ccc(S(=O)(=O)CC2CC2)cc1)Nc1ccc(C(=O)N(c2ccccc2)C2CCC2)cc1` [Example 141, N-cyclobutyl-4-[2-(4-cyclopropylmethanesulfonylphenyl)acetamido]-N-phenylbenzamide]: the IC50 was at most 0.01 µM.

As for `CC(C)(C)N(Cc1ccccc1)C(=O)c1ccc(NC(=O)Cc2ccc(S(=O)(=O)CC3CC3)cc2)cc1` [Example 113, N-benzyl-N-tert-butyl-4-[2-(4-cyclopropylmethanesulfonylphenyl)acetamido]benzamide], the IC50 was at most 0.01 µM.

As for `Cc1cc(N(C)C(=O)c2ccc(NC(=O)Cc3ccc(S(=O)(=O)CC4CC4)cc3)cc2)no1` [Example 90, 4-[2-(4-cyclopropylmethanesulfonylphenyl)acetamido]-N-methyl-N-(5-methyl-1,2-oxazol-3-yl)benzamide], the IC50 is at most 0.01 µM.

As for `CCN(C(=O)c1ccc(NC(=O)Cc2ccc(S(=O)(=O)CC3CC3)cc2)cc1F)c1ccccc1` [Example 99, 4-[2-(4-cyclopropylmethanesulfonylphenyl)acetamido]-N-ethyl-2-fluoro-N-phenylbenzamide], the IC50 is at most 0.01 µM.

With `CCN(C(=O)c1ccc(NC(=O)Cc2ccc(S(=O)(=O)NC3CC3)cc2)c(C)c1)c1ccccc1` [Example 106, 4-{2-[4-(cyclopropylsuIfamoyl)phenyl]acetamido}-N-ethyl-3-methyl-N-phenylbenzamide], the IC50 was at most 1 µM.

In the case of `O=C(Cc1ccc(S(=O)(=O)CC2CC2)cc1)Nc1ccc(C(=O)N2CCCC(c3ccccc3)C2)cc1` (stereo not shown) [Example 48, 2-(4-cyclopropylmethanesulfonylphenyl)-N-[4-(3-phenylpiperidine-1-carbonyl)phenyl]acetamide], the IC50 is at most 0.1 µM.

For the compound `CCN(C(=O)c1ccc(NC(=O)Cc2ccc(S(=O)(=O)CC3CC3)cc2)nc1)c1ccccc1` [Example 51, 6-[2-(4-cyclopropylmethanesulfonylphenyl)acetamido]-N-ethyl-N-phenylpyridine-3-carboxamide], the IC50 was at most 0.1 µM.

The values above are taken from patent publication US10315996B2, “ROR gamma (RORγ) modulators” (LEAD PHARMA HOLDING B.V., priority 2015, dated 2019).
